This is an account of results in PubChem BioAssay (NCI).

Test systems include HS 578T breast; EKVX NSCLC; CAKI-1 renal; NCI-H23 lung; UACC-62 melanoma; NCI-H226 lung; NCI/ADR-RES ovarian; KM12 colon; RXF 393 renal.
What all share (experiment): NCI tumour cell line growth inhibition, 48 h

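Protocol summary: plate cells (96-well), add compound at 5 concentrations, incubate 48 h, interpolate endpoints linearly. GI50 marks 50% less growth. The concentration for full growth arrest is given as TGI.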 Some results are limits rather than exact numbers.

Turning to `C=C(CN(C)Cc1ccccc1)c1ccc(NC(=O)c2ccc(C(=C)CN(C)Cc3ccccc3)cc2)cc1`, the GI50 in the experiment with HS 578T breast was 40 µM; with EKVX NSCLC it was 73.3 µM; in the experiment on CAKI-1 renal, 53 µM; in the experiment on NCI-H23 lung, 49.4 µM; in the experiment with UACC-62 melanoma, 50.2 µM; in the experiment with NCI-H226 lung, 34.6 µM. The values for the GI50 in the experiment with NCI/ADR-RES ovarian, in the experiment on KM12 colon and in the experiment with RXF 393 renal were 34.8 µM, more than 100 µM and 32 µM, respectively. For the same compound, the TGI with HS 578T breast, in the experiment with EKVX NSCLC, with CAKI-1 renal, with NCI-H23 lung, in the experiment on UACC-62 melanoma and with NCI-H226 lung was more than 100 µM in each case. Besides, the TGI with NCI/ADR-RES ovarian is more than 100 µM; in the experiment on KM12 colon it was more than 100 µM; in the experiment on RXF 393 renal it was 99.3 µM.
Take `O=[N+]([O-])c1cccnc1N=Nc1c(O)[nH]c2ccccc12`: the TGI is more than 100 µM in the experiment with HS 578T breast; 66 µM in the experiment with EKVX NSCLC; 23 µM in the experiment on UACC-62 melanoma; more than 100 µM in the experiment with NCI-H226 lung; more than 100 µM with NCI/ADR-RES ovarian; 25.6 µM with KM12 colon.
Turning to `COC(=O)c1c2c(c(C)[n+]([O-])c1C)C(=O)C(NCc1ccc(Br)cc1)=CC2=O`, the GI50 in the experiment on HS 578T breast was 2.64 µM; in the experiment with NCI-H23 lung, 1.57 µM; with UACC-62 melanoma, 1.17 µM; in the experiment with NCI/ADR-RES ovarian it was 1.97 µM; in the experiment with RXF 393 renal, 1.99 µM. Moreover, the TGI with HS 578T breast came out at 9.94 µM; in the experiment with NCI-H23 lung, 4.68 µM; in the experiment on UACC-62 melanoma, 2.69 µM; in the experiment with NCI/ADR-RES ovarian, 7.03 µM; with RXF 393 renal, 5.96 µM.
As to `Cc1nc2c(N)ncnc2o1`, the TGI in the experiment with EKVX NSCLC, in the experiment on CAKI-1 renal, in the experiment on NCI-H23 lung, in the experiment with UACC-62 melanoma, in the experiment with NCI-H226 lung and in the experiment on KM12 colon was more than 100 µM throughout. In addition, in the experiment with RXF 393 renal, the TGI was more than 100 µM.
As to `CC1=C(C(=O)Nc2ccccc2)C(c2ccc(Cl)c(Cl)c2)C(C(=O)Nc2ccccc2)=C(C)N1`, the TGI in the experiment on EKVX NSCLC was determined as 30.9 µM; in the experiment with NCI-H23 lung, 27 µM; with UACC-62 melanoma it was 22.6 µM; in the experiment on KM12 colon it was 25.7 µM; with RXF 393 renal, 21.7 µM.
`C=C(C)[C@@H]1CC[C@]2(CN)CC[C@]3(C)[C@H](CC[C@@H]4[C@@]5(C)CCCNC(C)(C)[C@@H]5CC[C@]43C)[C@@H]12`: the GI50 in the experiment on HS 578T breast was 1.8 µM; in the experiment on EKVX NSCLC, 1.77 µM; in the experiment with CAKI-1 renal it was 1.66 µM; in the experiment with NCI-H23 lung, 1.7 µM; in the experiment with UACC-62 melanoma, 1.87 µM; in the experiment on NCI-H226 lung, 1.88 µM. The GI50 in the experiment on RXF 393 renal was 1.75 µM. The TGI is 4 µM in the experiment with HS 578T breast; 3.39 µM in the experiment with EKVX NSCLC; 3.02 µM with CAKI-1 renal; 3.3 µM in the experiment with NCI-H23 lung; 3.42 µM with UACC-62 melanoma; 3.8 µM in the experiment on NCI-H226 lung. Besides, the TGI in the experiment with RXF 393 renal worked out at 3.49 µM.
As to `O=c1[nH]c(=O)n(C2CC(O)C(CO)O2)cc1OS(=O)(=O)C(F)(F)F` (stereo not drawn), the TGI with EKVX NSCLC, with CAKI-1 renal, with NCI-H23 lung, in the experiment with UACC-62 melanoma, in the experiment on NCI-H226 lung and in the experiment on KM12 colon was more than 100 µM in each case. The compound also registered a TGI in the experiment on RXF 393 renal of more than 100 µM.
Regarding `COc1cc(/C=C2\CCCCC3=C2N=C2SC(C)=CN2C3c2cc(OC)c(OC)c(OC)c2)cc(OC)c1OC` (stereo not drawn), the GI50 was 16 µM with HS 578T breast; 73.3 µM in the experiment with CAKI-1 renal; 32.2 µM in the experiment on NCI-H23 lung; 3.26 µM in the experiment with UACC-62 melanoma; 11 µM with NCI-H226 lung; 12 µM in the experiment on NCI/ADR-RES ovarian. The GI50 in the experiment on KM12 colon was 36.8 µM; with RXF 393 renal it was 3.06 µM. The TGI with HS 578T breast, with CAKI-1 renal, in the experiment on NCI-H23 lung, in the experiment with UACC-62 melanoma, with NCI-H226 lung and in the experiment on NCI/ADR-RES ovarian was more than 100 µM throughout. Moreover, the TGI in the experiment with KM12 colon and in the experiment with RXF 393 renal was more than 100 µM in each case.
For `NNc1ncnc2nc[nH]c12`, the GI50 in the experiment on HS 578T breast was 7.71 µM; in the experiment with EKVX NSCLC, 7.17 µM; with CAKI-1 renal, 0.793 µM; with NCI-H23 lung it was 10.1 µM; in the experiment with UACC-62 melanoma, 3.05 µM; in the experiment with NCI-H226 lung it was 5.88 µM. In addition, the GI50 is 3.37 µM in the experiment on NCI/ADR-RES ovarian, 3.56 µM with KM12 colon and 7.16 µM with RXF 393 renal. For the same compound, the TGI in the experiment on HS 578T breast was more than 70 µM; in the experiment with EKVX NSCLC, more than 100 µM; in the experiment on CAKI-1 renal it was 18.3 µM; in the experiment on NCI-H23 lung it was more than 100 µM; in the experiment on UACC-62 melanoma, 39.9 µM; in the experiment on NCI-H226 lung it was more than 100 µM. Also, the TGI with NCI/ADR-RES ovarian is more than 100 µM; in the experiment with KM12 colon, 44.5 µM; in the experiment on RXF 393 renal, more than 100 µM.
On to `N#CC(I)CS(=O)(=O)c1ccccc1` (stereo not drawn), for which the GI50 in the experiment with HS 578T breast is 26.5 µM; in the experiment on EKVX NSCLC, 19.4 µM; in the experiment on CAKI-1 renal, 1.61 µM; with NCI-H23 lung, 16.7 µM; with UACC-62 melanoma, 16.6 µM; with NCI-H226 lung, 17.9 µM. For the same compound, the GI50 with NCI/ADR-RES ovarian was 17.5 µM; with KM12 colon it was 18.9 µM; with RXF 393 renal it was 4.1 µM. Also, the TGI with HS 578T breast amounted to 61.4 µM; in the experiment with EKVX NSCLC it was 44.2 µM; with CAKI-1 renal, 3.32 µM; in the experiment on NCI-H23 lung it was 31.7 µM; with UACC-62 melanoma, 30.3 µM; in the experiment on NCI-H226 lung, 37.8 µM. Further, the TGI came out at 35.1 µM in the experiment with NCI/ADR-RES ovarian, 34.4 µM in the experiment on KM12 colon and 13 µM with RXF 393 renal.
Consider `Cc1nc2sccn2c1-c1nc2sccn2c1/C=C1/C(=O)Nc2ccccc21`, for which the GI50 with HS 578T breast is 1.96 µM; in the experiment on EKVX NSCLC, 7.45 µM; with CAKI-1 renal, 5.29 µM; in the experiment with NCI-H23 lung it was 9.44 µM; in the experiment on UACC-62 melanoma, 5.15 µM; in the experiment on NCI-H226 lung it was 9.79 µM. Besides, the GI50 with NCI/ADR-RES ovarian was 9.08 µM; in the experiment with KM12 colon, 1.76 µM. Further, the TGI with HS 578T breast is 9.75 µM; in the experiment on EKVX NSCLC, 55.3 µM; with CAKI-1 renal it was 69.4 µM; with NCI-H23 lung, more than 100 µM; in the experiment on UACC-62 melanoma it was more than 100 µM; in the experiment with NCI-H226 lung it was more than 100 µM. Moreover, the figures for the TGI in the experiment on NCI/ADR-RES ovarian and with KM12 colon were more than 100 µM and 14.6 µM, respectively.
With `COC(=N)c1csc(C2OC(CO)C(O)C2O)n1` (stereo not drawn), the TGI in the experiment with EKVX NSCLC, in the experiment with CAKI-1 renal, in the experiment with NCI-H23 lung, with UACC-62 melanoma, in the experiment with NCI-H226 lung and in the experiment on KM12 colon was more than 100 µM throughout.
Take `COc1cc(OC)c(OC)cc1/C=N/NC(=O)N/N=C/c1cc(OC)c(OC)cc1OC`: the TGI in the experiment with EKVX NSCLC, in the experiment with NCI-H23 lung, in the experiment on UACC-62 melanoma, in the experiment with NCI-H226 lung and in the experiment on KM12 colon was more than 100 µM each time.
Regarding `O=C(c1ccc([N+](=O)[O-])cc1[N+](=O)[O-])N(/N=C/C=C/c1ccccc1)c1nnc(-c2ccccc2)c(-c2ccccc2)n1`, the TGI in the experiment on EKVX NSCLC is more than 100 µM; with CAKI-1 renal it was 79.6 µM; with NCI-H23 lung, 93.2 µM; in the experiment with UACC-62 melanoma it was 70.4 µM; in the experiment on NCI-H226 lung, more than 100 µM; in the experiment with KM12 colon, more than 100 µM. The compound also had a TGI in the experiment on RXF 393 renal of 71.1 µM.
For `CN1Nc2ccccc2CC1=O`, the TGI in the experiment with EKVX NSCLC, in the experiment with CAKI-1 renal, in the experiment with NCI-H23 lung, with UACC-62 melanoma, in the experiment on NCI-H226 lung and in the experiment with KM12 colon was more than 100 µM each time.
On to `O=C1C=C(Nc2ccc(Cl)cc2C(=O)c2ccccc2)c2ccccc2C1=O`, for which the TGI with EKVX NSCLC, in the experiment on CAKI-1 renal, with NCI-H23 lung, in the experiment with UACC-62 melanoma, in the experiment with NCI-H226 lung and with KM12 colon was more than 100 µM throughout. Further, the TGI with RXF 393 renal was more than 100 µM.
For the compound `CCOC(=O)Nc1c(C)nc2ccccn12`, the GI50 with HS 578T breast, in the experiment with EKVX NSCLC, with CAKI-1 renal, in the experiment with NCI-H23 lung, with UACC-62 melanoma and with NCI-H226 lung was more than 100 µM in each case. Further, the GI50 with KM12 colon and in the experiment on RXF 393 renal was more than 100 µM each time. Moreover, the TGI in the experiment on HS 578T breast, in the experiment with EKVX NSCLC, in the experiment on CAKI-1 renal, in the experiment on NCI-H23 lung, in the experiment on UACC-62 melanoma and with NCI-H226 lung was more than 100 µM each time. The TGI in the experiment with KM12 colon and in the experiment with RXF 393 renal was more than 100 µM throughout.
With `C=C(C)C(C1C=C(CCC(C=O)=C(C)C)C(=O)O1)C1(OC)C=C(C)C(=O)O1` (stereo not drawn), the GI50 in the experiment on HS 578T breast was more than 100 µM; in the experiment on EKVX NSCLC, more than 100 µM; with CAKI-1 renal, more than 100 µM; with NCI-H23 lung it was 91.3 µM; in the experiment with UACC-62 melanoma, 95.4 µM; in the experiment with NCI-H226 lung it was more than 100 µM. The GI50 with NCI/ADR-RES ovarian and with KM12 colon was more than 100 µM in each case. Moreover, the TGI in the experiment with HS 578T breast, in the experiment with EKVX NSCLC, in the experiment on CAKI-1 renal, in the experiment with NCI-H23 lung, in the experiment with UACC-62 melanoma and in the experiment on NCI-H226 lung was more than 100 µM each time. Further, the TGI with NCI/ADR-RES ovarian and in the experiment on KM12 colon was more than 100 µM throughout.
